Laboratory results: patent US9181235B2, “Substituted pyridines for modulating the WNT signaling pathway” (NOVARTIS AG, priority 2010, dated 2015)

system: Wnt signaling; assay: Wnt-Luc reporter assay for pathway inhibition of Wnt signaling; assay type: cell-based, mouse (TM3 Wnt-Luc) or human (293 Wnt-Luc); not stated which; settings: Wnt-Luc reporter cells co-cultured with L-cell Wnt3a cells, 24 hours, luciferase signal reduced by 50%
Procedure: This example provides a method that is useful for evaluating test compounds for inhibition of Wnt signaling.
Mouse leydig cell TM3 cells (obtained from American Type Culture Collection, ATCC, Manassas, Va.) are cultured in 1:1 mixture of Ham's F12 medium and Dulbecco's modified Eagle's medium (Gibco/Invitrogen, Carlsbad, Calif.) supplemented with 2.5% FBS (Gibco/Invitrogen, Carlsbad, Calif.) and 5% horse serum (Gibco/Invitrogen, Carlsbad, Calif.), 50 unit/mL penicillin and 50 μg/mL of streptomycin (Gibco/Invitrogen, Carlsbad, Calif.) at 37° C. with 5% CO2 in air atmosphere. TM3 cells in a 10 cm dish are co-transfected with 8 μg of STF-reporter plasmid containing a luciferase gene driven by Wnt-responsive elements and 2 μg of pcDNA3.1-Neo (Gibco/Invitrogen, Carlsbad, Calif.) with 30 μL of FuGENE6 (Roche Diagnostics, Indianapolis, Ind.) following the manufacturer's protocol. Stable cell lines (TM3 Wnt-Luc) were selected with 400 μg/mL of G418 (Gibco/Invitrogen, Carlsbad, Calif.). The TM3 Wnt-Luc cells and L-cell Wnt3a cells (obtained from American Type Culture Collection, ATCC, Manassas, Va.; cultured in Dulbecco's modified Eagle's medium (Gibco/Invitrogen, Carlsbad, Calif.) supplemented with 10% FBS (Gibco/Invitrogen, Carlsbad, Calif.) and 50 unit/mL penicillin and 50 μg/mL of streptomycin (Gibco/Invitrogen, Carlsbad, Calif.) at 37° C. with 5% CO2 in air atmosphere) are trypsinized and co-cultured into a 384-well plate with DMEM medium supplemented with 2% FBS, and treated with different concentrations of a compound of the invention. After 24 hours, the firefly luciferase activities are assayed with the Bright-Glo™ Luciferase Assay System (Promega, Madison, Wis.). The IC50 is measured when the effect of the compound reduces the luminescence signal by 50%.
This example provides another method that is useful for evaluating test compounds for inhibition of Wnt signaling.
Human embryonic kidney 293 cells (obtained from American Type Culture Collection, ATCC, Manassas, Va.) are cultured in DMEM medium (Gibco/Invitrogen, Carlsbad, Calif.) supplemented with 10% FBS (Gibco/Invitrogen, Carlsbad, Calif.), 50 unit/mL penicillin and 50 μg/mL of streptomycin (Gibco/Invitrogen, Carlsbad, Calif.) at 37° C. with 5% CO2 in air atmosphere. 293 cells in a 10 cm dish are co-transfected with 8 μg of STF-reporter plasmid containing a luciferase gene driven by Wnt-responsive elements and 2 μg of pcDNA3.1-Neo (Gibco/Invitrogen, Carlsbad, Calif.) with 30 μL of FuGENE6 (Roche Diagnostics, Indianapolis, Ind.) following the manufacturer's protocol. Stable cell lines (293 Wnt-Luc) were selected with 400 μg/mL of G418 (Gibco/Invitrogen, Carlsbad, Calif.). The 293 Wnt-Luc cells and L-cell Wnt3a cells (obtained from American Type Culture Collection, ATCC, Manassas, Va.) are trypsinized and co-cultured into a 384-well plate with DMEM medium supplemented with 2% FBS, and treated with different concentrations of a compound of the invention. After 24 hours, the firefly luciferase activities are assayed with the Bright-Glo™ Luciferase Assay System (Promega, Madison, Wis.). The IC50 is measured when the effect of the compound reduces the luminescence signal by 50%.

Row | Compound | IC50 [nM]
1 | O=C(NCc1ccc(-c2ccnc(C(F)(F)F)c2)nc1)c1ccc(-c2cccc(F)c2)cn1 [compound 33, 5-(3-Fluorophenyl)-N-((2′-(trifluoromethyl)-2,4′-bipyridin-5-yl)methyl)picolinamide] | 0.2
2 | Cc1cc(-c2ccc(CNC(=O)c3ccc(-c4ccc(F)cc4)cn3)cn2)ccn1 [compound 35, 5-(4-fluorophenyl)-N-{[6-(2-methylpyridin-4-yl)pyridin-3-yl]methyl}pyridine-2-carboxamide] | 4.9
3 | Cc1cc(-c2ncc(CNC(=O)c3ccc(-c4cccc(F)c4)cn3)cc2C)ccn1 [compound 36, 5-(3-fluorophenyl)-N-{[5-methyl-6-(2-methylpyridin-4-yl)pyridin-3-yl]methyl}pyridine-2-carboxamide] | 0.3
4 | O=C(NCc1ccc(-c2ccnc(F)c2)nc1)c1ccc(-c2ccnnc2)cn1 [compound 37, N-{[6-(2-fluoropyridin-4-yl)pyridin-3-yl]methyl}-5-(pyridazin-4-yl)pyridine-2-carboxamide] | 42
5 | CN(C)c1ccc(-c2ccc(C(=O)NCc3ccc(-c4ccnc(F)c4)nc3)nc2)cn1 [compound 38, 6′-(Dimethylamino)-N-((2′-fluoro-2,4′-bipyridin-5-yl)methyl)-3,3′-bipyridine-6-carboxamide] | 0.56
6 | Cc1cc(CNC(=O)c2ccc(-c3cnccn3)cn2)cnc1-c1ccnc(F)c1 [compound 39, N-{[6-(2-fluoropyridin-4-yl)-5-methylpyridin-3-yl]methyl}-5-(pyrazin-2-yl)pyridine-2-carboxamide] | 0.26
7 | Cc1cc(CNC(=O)c2ccc(-c3cnccn3)nc2)cnc1-c1ccnc(F)c1 [compound 40, N-{[6-(2-fluoropyridin-4-yl)-5-methylpyridin-3-yl]methyl}-6-(pyrazin-2-yl)pyridine-3-carboxamide] | 0.76
8 | O=C(NCc1ccc(-c2ccnc(C(F)(F)F)c2)nc1)c1ccc(-c2cnccn2)cn1 [compound 41, 5-(Pyrazin-2-yl)-N-((2′-(trifluoromethyl)-2,4′-bipyridin-5-yl)methyl)picolinamide] | 0.36
9 | O=C(NCc1ccc(-c2ccnc(C(F)(F)F)c2)nc1)c1ccc(-c2cnccn2)nc1 [compound 42, 6-(Pyrazin-2-yl)-N-((2′-(trifluoromethyl)-2,4′-bipyridin-5-yl)methyl)nicotinamide] | 0.79
10 | CS(=O)(=O)c1cccc(-c2ccc(C(=O)NCc3ccc(-c4ccnc(F)c4)nc3)nc2)c1 [compound 43, N-((2′-Fluoro-2,4′-bipyridin-5-yl)methyl)-5-(3-(methylsulfonyl)phenyl)picolinamide] | 718
11 | O=C(NCc1ccc(-c2ccnc(F)c2)nc1)c1ccc(-n2ccccc2=O)cn1 [compound 44, N-((2′-fluoro-[2,4′-bipyridin]-5-yl)methyl)-2-oxo-2H-[1,3′-bipyridine]-6′-carboxamide] | 465
12 | Cc1cc(-c2ccc(CNC(=O)c3ccc(-c4ccccc4C)cc3)cn2)ccn1 [compound 45, 4-(2-methylphenyl)-N-{[6-(2-methylpyridin-4-yl)pyridin-3-yl]methyl}benzamide] | 3.5
13 | CC(=O)N1CCN(c2ccc(C(=O)NCc3cnc(-c4ccnc(C(F)(F)F)c4)c(F)c3)cn2)CC1 [compound 46, 6-(4-Acetylpiperazin-1-yl)-N-((3-fluoro-2′-(trifluoromethyl)-[2,4′-bipyridin]-5-yl)methyl)nicotinamide] | 4.2
14 | Cc1cc(CNC(=O)c2ccc(-c3cccc(F)c3)nc2)cnc1-c1ccnc(C(F)(F)F)c1 [compound 47, 6-(3-fluorophenyl)-N-({5-methyl-6-[2-(trifluoromethyl)pyridin-4-yl]pyridin-3-yl}methyl)pyridine-3-carboxamide] | 0.26
15 | CC(=O)N1CCN(c2ccc(C(=O)NCc3cnc(-c4ccnc(C(F)(F)F)c4)c(C)c3)nc2)CC1 [compound 48, 5-(4-Acetylpiperazin-1-yl)-N-((3-methyl-2′-(trifluoromethyl)-2,4′-bipyridin-5-yl)methyl)picolinamide] | 26
16 | COC(=O)N1CCN(c2ccc(C(=O)NCc3cnc(-c4ccnc(C(F)(F)F)c4)c(F)c3)nc2)CC1 [compound 49, Methyl 4-(6-((3-fluoro-2′-(trifluoromethyl)-2,4′-bipyridin-5-yl)methylcarbamoyl)pyridin-3-yl)piperazine-1-carboxylate] | 0.24
17 | Cc1cc(-c2ccc(CNC(=O)c3ccc(-c4ccccc4)c(C)c3)cn2)ccn1 [compound 50, 3-methyl-N-{[6-(2-methylpyridin-4-yl)pyridin-3-yl]methyl}-4-phenylbenzamide] | 3
18 | Cc1cc(CNC(=O)c2ccc(-c3cccnn3)nc2)cnc1-c1ccnc(F)c1 [compound 52, N-{[6-(2-fluoropyridin-4-yl)-5-methylpyridin-3-yl]methyl}-6-(pyridazin-3-yl)pyridine-3-carboxamide] | 1.6
19 | Cc1cc(CNC(=O)c2ccc(-c3cccnn3)nc2)cnc1-c1ccnc(C(F)(F)F)c1 [compound 53, N-({5-methyl-6-[2-(trifluoromethyl)pyridin-4-yl]pyridin-3-yl}methyl)-6-(pyridazin-3-yl)pyridine-3-carboxamide] | 10.2
20 | Cc1cc(CNC(=O)c2ccc(-c3cnccn3)nc2)cnc1-c1ccnc(C(F)(F)F)c1 [compound 54, N-({5-methyl-6-[2-(trifluoromethyl)pyridin-4-yl]pyridin-3-yl}methyl)-6-(pyrazin-2-yl)pyridine-3-carboxamide] | 1.2
21 | Cc1cc(CNC(=O)c2ccc(-c3cnccn3)cn2)cnc1-c1ccnc(C(F)(F)F)c1 [compound 55, N-((3-Methyl-2′-(trifluoromethyl)-2,4′-bipyridin-5-yl)methyl)-5-(pyrazin-2-yl)picolinamide] | 0.8
22 | O=C(NCc1ccn(-c2ccnc(C(F)(F)F)c2)c(=O)c1)c1ccc(-c2cnccn2)cn1 [compound 56, N-((2-oxo-1-(2-(trifluoromethyl)pyridin-4-yl)-1,2-dihydropyridin-4-yl)methyl)-5-(pyrazin-2-yl)picolinamide] | 34
23 | Cc1cc(CNC(=O)c2ccc(-c3cccc(F)c3)cn2)cnc1-c1ccnc(C(F)(F)F)c1 [compound 57, 5-(3-fluorophenyl)-N-({5-methyl-6-[2-(trifluoromethyl)pyridin-4-yl]pyridin-3-yl}methyl)pyridine-2-carboxamide] | 0.35
24 | Cc1cc(CNC(=O)c2ccc(-c3cnccn3)cc2)cnc1-c1ccnc(C(F)(F)F)c1 [compound 58, N-((3-Methyl-2′-(trifluoromethyl)-2,4′-bipyridin-5-yl)methyl)-4-(pyrazin-2-yl)benzamide] | 0.41
25 | Cc1cc(-c2ncc(CNC(=O)c3ccc(-c4cccc(F)c4)cn3)cc2F)ccn1 [compound 59, N-{[5-fluoro-6-(2-methylpyridin-4-yl)pyridin-3-yl]methyl}-5-(3-fluorophenyl)pyridine-2-carboxamide] | 0.29
26 | Cc1cc(-c2ncc(CNC(=O)c3ccc(-c4cnccn4)cn3)cc2F)ccn1 [compound 60, N-{[5-fluoro-6-(2-methylpyridin-4-yl)pyridin-3-yl]methyl}-5-(pyrazin-2-yl)pyridine-2-carboxamide] | 0.26
27 | Cc1cc(-c2ncc(CNC(=O)c3ccc(-c4cnccn4)nc3)cc2F)ccn1 [compound 61, N-{[5-fluoro-6-(2-methylpyridin-4-yl)pyridin-3-yl]methyl}-6-(pyrazin-2-yl)pyridine-3-carboxamide] | 0.62
28 | CC(=O)N1CCN(c2ccc(C(=O)NCc3cnc(-c4ccnc(C)c4)c(F)c3)nc2)CC1 [compound 62, 5-(4-acetylpiperazin-1-yl)-N-{[5-fluoro-6-(2-methylpyridin-4-yl)pyridin-3-yl]methyl}pyridine-2-carboxamide] | 11.8
29 | Cc1cc(-c2ncc(CNC(=O)c3ccc(-c4cnccn4)cn3)cc2C)ccn1 [compound 63, N-((2′,3-dimethyl-2,4′-bipyridin-5-yl)methyl)-5-(pyrazin-2-yl)picolinamide] | 2.5
